Measured values reported in patent US8865770B2, “Carbamide peroxide treatments for the reproductive tract” (Vets Plus, Inc., priority 2011, dated 2014).

What was measured:
[1] = tested on: metritis-causing organisms; assay: In vitro killing of bacteria in uterine discharge from a cow with confirmed metritis; format: cell-based
Method: In vitro testing: One-ml aliquots of uterine discharge from a cow with confirmed metritis were collected and diluted with 1 ml of water. The aliquots were incubated for 30 minutes at 37° C. either in the presence of 7.0% carbamide peroxide (test) or in the absence of carbamide peroxide (control). Bacteria from each treatment were washed and centrifuged, reconstituted in media, and plated on suitable culture media plates. The plates were incubated for three days. […] A similar experiment was conducted using urea in place of carbamide peroxide. The concentration of urea used was 11.3%. This is the equivalent amount of urea found in 4 urea boluses per 16 ounces of water, which is recommended for in vivo treatment using commercially available urea boluses.

[2] = tested on: postpartum cows with retained placenta; assay: Clinical trials of intrauterine bolus in cows having retained placenta; format: in vivo; details: single bolus containing 3.5 grams carbamide peroxide inserted in the uterus
Method: Efficacy of carbamide peroxide administration in treating retained placenta was tested in clinical trials with cows having retained placenta. A single bolus containing 3.5 grams carbamide peroxide was inserted in the uterus of postpartum cows with retained placenta.

[3] = tested on: cows diagnosed with metritis; assay: Clinical trials of intrauterine bolus in cows diagnosed with metritis; format: in vivo; details: single bolus containing 3.5 grams carbamide peroxide inserted in the uterus
Method: Efficacy of carbamide peroxide administration for treating metritis was tested in clinical trials with cows diagnosed with metritis. A single bolus containing 3.5 grams carbamide peroxide was inserted in the uterus of cows showing metritis symptoms such as foul uterine discharge. […] As no antibiotics were required in these cases, no milk had to be discarded. Because no milk was discarded, full financial benefit to the farmer was received for selling more milk than would have occurred if milk had to be discarded due to the presence of antibiotics. […] This indicates the carbamide peroxide administration is safe for use for the long term health of the cow and helps reduce subsequent reproduction failures.

[4] = tested on: cow diagnosed with severe metritis and vaginitis; assay: Uterine flush (wash format) in a cow with severe metritis and vaginitis; format: in vivo; details: two boluses comprising 3.5 g carbamide peroxide dissolved in 1 quart of water, uterus flushed; cow 5 days after calving
Method: Efficacy of carbamide peroxide administration in a wash format was tested with a cow diagnosed with severe metritis and vaginitis. A cow that had calved 5 days previously presented a foul smelling uterine discharge. Upon clinical examination, it was discovered that remnants of the placenta were still in the uterus and that the animal was off feed. Antibiotics were not preferred for treatment, as sale of milk from the cow was very important. (Antibiotic residue in milk is not permitted if sale of milk is to occur.) Two boluses comprising 3.5 g carbamide peroxide were dissolved in 1 quart of water, and the uterus of the cow was flushed out with the flush. Within 24-48 hours, the uterine discharge had cleared, the cow was on feed again, and placental remnants were gone. The animal was able to be milked easier than prior to treatment, and the cow was returned to normal service in good health. As no antibiotics were used, the milk was not required to be discarded, and the owner was able to make financial gain from the sale of the milk.

| SMILES | bacteria colonies on culture plates after treatment ([1]; 11.3% urea in place of carbamide peroxide, similar experiment) | bacteria colonies on culture plates after treatment ([1]; 7.0% carbamide peroxide, 30 minutes at 37° C., plates incubated three days, control plates had hundreds of colonies) | foul uterine discharge after treatment [2] | shedding of retained placenta [2] | feed intake during the treatment [3] | need for follow-up with antibiotics [3] | subsequent conception and calving (long-term safety) [3] | uterine discharge (metritis symptom) [3] | time until uterine discharge had cleared, cow on feed again, placental remnants gone [4] [h] |
| --- | --- | --- | --- | --- | --- | --- | --- | --- | --- |
| NC(N)=O [urea, reference compound] | several bacterial colonies still being present |  |  |  |  |  |  |  |  |
| NC(N)=O.OO [carbamide peroxide] |  | no colonies were found | no foul uterine discharge | The next day, the retained placenta was shed naturally | did not go off feed | No follow-up with antibiotics were required | subsequently conceived safely and had healthy calves | improved and reduced quickly | 24 to 48 |
